Data: patent US20180214506A1, “COMBINATION ADMINISTRATION OF GNRH ANTAGONISTS” (ANTEV LIMITED, priority 2017, published 2018)
Values after ≈ are worked out from the molar mass of the structure shown. Counter-ions that a name gives are not always drawn. Like-named read-outs stand apart in the source and are kept apart here. Non-standard residues stand in square brackets, D forms with d. Residues, ends and D or L forms follow the SMILES beside them. Phe(4-Cl) = N[C@@H](Cc1ccc(Cl)cc1)C(=O)O; dPhe(4-Cl) = N[C@H](Cc1ccc(Cl)cc1)C(=O)O; d2Nal = N[C@H](Cc1ccc2ccccc2c1)C(=O)O; d(hCit) = NC(=O)NCCCC[C@@H](N)C(=O)O; Lys(iPr) = CC(C)NCCCC[C@H](N)C(=O)O; d3Pal = N[C@H](Cc1cccnc1)C(=O)O

Legend:
[1] = Phase I study D-84812-Z012, single s.c. injection: safety and tolerability; type: in vivo, human; details: doses up to 90 mg, 32 healthy male volunteers
[2] = Phase I study D-84812-Z012, single s.c. injection: pharmacokinetics of teverelix; type: in vivo, human
[3] = Phase II study 2 x 90 mg i.m. (A014): tolerability; type: in vivo, human; details: A014: i.m. 90 mg day 1 and 8
Description: (§1) The primary objective was to assess the duration of action of an initial “loading” dose regimen of Teverelix TFA delivered IM in terms of suppression of testosterone to below castrate level (0.5 ng/mL [2 nmol/L]). The secondary objectives were to assess the pharmacodynamics of teverelix in terms of ability to suppress and to maintain plasma testosterone levels below castration level (<0.5 ng/mL [2 nmol/L]) for 3 weeks; to assess the effects on luteinising hormone (LH) and prostate specific antigen (PSA); and to assess the safety of Teverelix in terms of incidence of local and systemic tolerability (adverse events [AEs] and changes in laboratory parameters).
(§2) This was a multicenter, open-label, non-controlled study in 14 patients diagnosed with advanced prostate cancer. Patients were screened for inclusion in the study between 1 and 7 days before first administration. Each patient received 2 intramuscular (i.m.) injections of 90 mg Teverelix TFA, 7 days apart, on Study Days 1 and 8. […] Blood samples were taken for the evaluation of teverelix, testosterone and LH in plasma, and PSA levels. Safety and tolerability were assessed throughout the study by monitoring local and systemic tolerability (AEs, clinical laboratory tests, vital signs an electrocardiogram [ECG]).
(§3) Comparison of s.c. injection 90 mg days 1, 2 and 3 vs. IM injection day 1 and 8.

[4] = Phase II study 2 x 90 mg i.m. Days 1 and 8 (A014): plasma PK of teverelix; type: in vivo; details: male, human, im; for AUC(0-t) / Cmax / Tmax / AUC(0-inf) / half-life: 90 mg; for AUC(0-t): N=14, read-out: AUC (0-t) Geometric mean; for Cmax: N=14, read-out: Cmax (obs) Geometric mean; for Tmax: N=14, read-out: Tmax (obs) Median
Description: In order to test the hypothesis that and IM injection of a GnRH antagonist could be useful as part of a prostate cancer regimen, a Phase II Multicenter, Open-label Study Investigating the Pharmacokinetics, Pharmacodynamics, Efficacy and Safety of a Teverelix 90 mg, TFA formulation was conducted.
as §1, §2
The geometric means for Cmax(obs), AUC(0-t), and AUC(0-∞) (along with respective coefficients of variations presented in parenthesis); Tmax median (along with the range of Tmax values presented in parenthesis); and arithmetic mean for T1/2,elim (along with standard deviation presented in parenthesis) are presented in Table 1 for each dose of teverelix IM.
The combined geometric means for AUC and AUC(∞) (along with respective coefficients of variations presented in parenthesis); and arithmetic mean for apparent clearance (CL/F) (along with standard deviation presented in parenthesis) for the two i.m. doses of teverelix are presented in Table 2.

[5] = Phase I study EP-24332T-A004, repeated s.c. injections: tolerability; type: in vivo, human; details: 2 doses of 60 mg or 90 mg s.c. at 24 h or 48 h interval
Description: In a second Phase I study (EP-24332T-A004), a second injection was administered 24 h or 48 h after the first in order to increase and prolong the initial peak, as well as increase the teverelix level and consequently the number of subjects castrated. As the previous Phase I study had shown 10 mg and 30 mg to be insufficient to provide a long-term suppression, 2 doses of 60 mg or 90 mg (6 subjects per group) or placebo (4 subjects) were administered at a 24 h interval and 2 doses of 90 mg at a 48 h interval. […] No critical safety findings were reported. […] The protocol of the study included 6 subjects who received 90 mg Teverelix TFA on D1; D2; D3.

[6] = Clinical study A013, s.c. injection 90 mg days 1, 2 and 3: tolerability; type: in vivo, human; details: A013: s.c. 90 mg days 1, 2 and 3
Description: as §3

[7] = Water solubility of teverelix; type: physicochemical
Description: In some instances, the GnRH antagonist can be teverelix ((Ac-D-NaID-pClPhe-D-Pal-Ser-Tyr-D-Hci-Leu-Lys(iPr)-Pro-D-Ala-NH2). Teverelix is a synthetic decapeptide with a water solubility of approximately 10 mg/mL.

[8] = compared with degarelix; cited from earlier work

Row | Structure (SMILES) | tolerability [1] | dose proportionality ([2]; between the 60 mg and 90 mg doses, single s.c.) | half-life ([2]; human, plasma, sc, single s.c. injection, doses up to 90 mg, healthy male volunteers) [h] | tolerability [3] | AUC(0-t) ([4]; Day 1 (Dose 1): 1 x 90 mg i.m.) [ng·h/mL] | Cmax ([4]; Day 1 (Dose 1): 1 x 90 mg i.m.) [ng/mL] | Tmax ([4]; Day 1 (Dose 1): 1 x 90 mg i.m.) [h] | AUC(0-inf) ([4]; Day 1 (Dose 1): 1 x 90 mg i.m., n = 8, read-out: AUC (0-∞) Geometric mean) [ng·h/mL] | half-life ([4]; Day 1 (Dose 1): 1 x 90 mg i.m., n = 8, read-out: T1/2,elim Arithmetic mean (converted)) [h] | AUC(0-t) ([4]; Day 8 (Dose 2): 1 x 90 mg i.m.) [ng·h/mL] | AUC(0-inf) ([4]; Day 8 (Dose 2): 1 x 90 mg i.m., N=14, read-out: AUC (0-∞) Geometric mean) [ng·h/mL] | Cmax ([4]; Day 8 (Dose 2): 1 x 90 mg i.m.) [ng/mL] | half-life ([4]; Day 8 (Dose 2): 1 x 90 mg i.m., N=14, read-out: T1/2,elim Arithmetic mean (converted)) [h] | Tmax ([4]; Day 8 (Dose 2): 1 x 90 mg i.m.) [h] | CL/F ([4]; 2 x 90 mg i.m., N=14, read-out: CL/F Arithmetic mean (converted)) [mL/min] | local reactions at the injection sites [5] | tolerability [5] | tolerability [6] | solubility [7] [µg/mL] | local irritation at the administration site [8]
1 | CC(=O)N[C@H](Cc1ccc2ccccc2c1)C(=O)N[C@H](Cc1ccc(Cl)cc1)C(=O)N[C@H](Cc1cccnc1)C(=O)N[C@@H](CO)C(=O)N[C@@H](Cc1ccc(O)cc1)C(=O)N[C@H](CCCCNC(N)=O)C(=O)N[C@@H](CC(C)C)C(=O)N[C@@H](CCCCNC(C)C)C(=O)N1CCC[C@H]1C(=O)N[C@H](C)C(N)=O [Teverelix TFA, teverelix trifluoroacetate] (Ac-[d2Nal][dPhe(4-Cl)][d3Pal]SY[d(hCit)]L[Lys(iPr)]P[dA]-NH2) | tolerated well | Dose proportionality was demonstrated | 252 to 331 | Very good/good for all patients | 1730 | 21.5 | 2 | 4610 | 167 | 8360 | 9380 | 38 | 404 | 1 | 249 |  |  |  |  | 
2 | CC(=O)N[C@H](Cc1ccc2ccccc2c1)C(=O)N[C@@H](Cc1ccc(Cl)cc1)C(=O)N[C@H](Cc1cccnc1)C(=O)N[C@@H](CO)C(=O)N[C@H](Cc1ccc(O)cc1)C(=O)N[C@H](CCCCNC(N)=O)C(=O)N[C@@H](CC(C)C)C(=O)N[C@@H](CCCCNC(C)C)C(=O)N1CCC[C@H]1C(=O)N[C@H](C)C(N)=O [teverelix, Ac-D-NaID-pClPhe-D-Pal-Ser-Tyr-D-Hci-Leu-Lys(iPr)-Pro-D-Ala-NH2] (Ac-[d2Nal][Phe(4-Cl)][d3Pal]S[dY][d(hCit)]L[Lys(iPr)]P[dA]-NH2) |  |  |  |  |  |  |  |  |  |  |  |  |  |  |  | only mild local indurations at the injection sites | tolerated well | Very good/good for all patients | ~10000 (≈ 6.85 mM) | less local irritation at the administration site than degarelix
